# “Also recorded” adds a separate entry of the source.
# Experiments:
# SARS-CoV-2 S protein = assay type: cell-based
# GBA2 = settings: cited from earlier work
# SARS-CoV-2 [1] = assay: Viral load reduction assay on H1299/ACE2 cells, extracellular viral RNA copies by RT-qPCR; assay type: cell-based
# [2] = test system: recombinant Mus musculus α-Glu II; assay: Thermal shift assay (SYPRO orange); assay type: binding; settings: 10 μM Mmα-Glu-II with 50 μM inhibitor; unliganded control 49.9 °C
# GCS = test system: GCS; parameters: method as in PMID 28776021; settings: cited from earlier work
# SARS-CoV-2 [3] = assay: Virucidal activity assay; settings: virus incubated 1 h; compound 11 at 50 μM
# GBA3 = settings: cited from earlier work
# HCoV-229E = assay type: cell-based
# SARS-CoV-2 [4] = assay type: cell-based
# SARS-CoV-2 [5] = assay: Viral load reduction assay in Calu-3 cells, infectious virus titer by plaque assay; assay type: cell-based
# Procedure: Cells were pretreated with 11 and infected with SARS-CoV-2 at a multiplicity of infection (MOI) of 1. At 16 h postinfection (hpi) supernatant was harvested to quantify the infectious virus titer by plaque assay and extracellular viral RNA copies by RT-qPCR. […] This is in line with the expected mechanism of action of the compound that involves viral (structural) protein maturation, likely resulting in reduced infectivity of progeny virus. We then calculated the specific infectivity (defined as the number of infectious particles per viral RNA copy) of treated and untreated samples for the data in Figure 3A,B (Figure 3C). […] None of the treatments caused noticeable cytotoxicity in uninfected treated cells (Figure 3B). Similarly, treatment of infected Calu-3 lung epithelial cells with 11 reduced infectious progeny virus titers by ∼10-fold, while no reduction in extracellular viral RNA copies was observed (Figure S3).
# Figure S2: Cytopathic effect reduction assays on Vero E6 monkey kidney cells and H1299/ACE2 human lung epithelial cells. […]
# plaque assay and RT-qPCR, respectively. Uninfected compound-treated cells were assessed by MTS assay in parallel to measure cytotoxicity of the compounds. n=3 independent experiments. […]
compound,measurement,setting,value
"O=S1(=O)O[C@@H]2[C@H](O)[C@@H](O)[C@H](O)[C@@H](CO)[C@@H]2O1 [Compound 11, 1,6-epi-cyclophellitol cyclosulfate]",S protein in infected cells (immunofluorescence),SARS-CoV-2 S protein,reduction in the amount of S protein
same,syncytium formation,SARS-CoV-2 S protein,reduced syncytium formation
same,inhibition of GBA2,GBA2,completely inactive; also recorded: does not inhibit
same,extracellular viral RNA copy numbers (in words),SARS-CoV-2 [1],only slightly reduced
same,Tm/°C,[2],63.3 °C
same,inhibition of GCS,GCS,does not inhibit
same,virucidal effect on infectious titer,SARS-CoV-2 [3],no effect on the infectious titer
same,inhibition of GBA3,GBA3,does not inhibit
same,virus infectivity of HCoV-229E (in words),HCoV-229E,did not show any reduction in virus infectivity
same,concentration at which the inhibitory effect reached a plateau,SARS-CoV-2 [4],1.6 µM
same,reduction of the infectious progeny virus titer,SARS-CoV-2 [4],100 fold
same,specific infectivity (infectious particles per viral RNA copy),"SARS-CoV-2 [4]; H1299/ACE2, 1.5 μM compound",decrease in specific infectivity
same,reduction of infectious virus titers,"SARS-CoV-2 [5]; Calu-3, 0.5–1.6 μM",up to 2 logs
same,reduction of infectious progeny virus titers,"SARS-CoV-2 [5]; Calu-3, MOI 1, 16 hpi",~10 fold
